# Read-outs that look alike come from different tables or passages of the source. Bridge positions count the residues as written; N and C are the ends. Square brackets hold non-standard residues; d marks the D form. Side chains are listed from the residue outwards. Peptide text beside a SMILES is read from it. I, II: the chains in the order shown. Orn = NCCC[C@H](N)C(=O)O
# Columns and labels:
# S. aureus ATCC 29213 = assay: microbe, parasite or virus in culture; type: cell-based, Staphylococcus aureus
# Experimental: (§1) Clinical isolates of CRE, MRSA and VRE were obtained from Lancet Laboratories, Durban, South Africa, with approval BE394/15 from the Biomedical Research Ethical Committee of the University of KwaZulu-Natal. Five reference strains of bacteria, namely Escherichia coli ATCC 25922, Pseudomonas aeruginosa ATCC 27853, Enterococcus faecium ATCC 35667, Staphylococcus aureus ATCC 29213 and Bacillus subtilis ATCC 6051 were supplied by the American Type Culture Collection (ATCC).
# (§2) MIC values were determined by the broth microdilution method and the significance of the values obtained was interpreted following the guidelines of the Clinical and Laboratory Standards for Antimicrobial Susceptibility Testing.. The effect of human serum on the antimicrobial effect of the molecules tested was determined in a similar way to the MIC method used above in a solution of 50% human serum plus Mueller–Hinton broth.
# B. subtilis ATCC 6051 = assay: microbe, parasite or virus in culture; type: cell-based, Bacillus subtilis
# Experimental: as §1, §2
# E. faecium ATCC 35667 = assay: microbe, parasite or virus in culture; type: cell-based, Enterococcus faecium
# Experimental: as §1, §2
# E. coli ATCC 25822 = assay: microbe, parasite or virus in culture; type: cell-based, Escherichia coli
# Experimental: as §1, §2
# P. aeruginosa ATCC 27853 = assay: microbe, parasite or virus in culture; type: cell-based, Pseudomonas aeruginosa
# Experimental: as §1, §2
# [1] = system: MRSA (methicillin-resistant S. aureus) isolates; assay: microbe, parasite or virus in culture; type: cell-based; conditions: methicillin-resistant ) isolates
# Experimental: as §1, §2
# P. aeruginosa [2] = assay: Time–kill curves; type: cell-based
# Experimental: Killing curve assays were performed with a starting inoculum of 6 × 10^6 CFU/mL. […] Antimicrobials were added to 5 mL of bacteria in the exponential phase of growth and incubated at 37 °C with shaking. Samples were obtained aseptically at 0, 1, 2, 4, 6 and 24 h, diluted in Ringer 1/4 and plated on TSA for colony counting. The response of microbial strains to a single antimicrobial was determined by lowering logarithms of viable bacteria. In accordance with Lora-Tamayo et al., an antimicrobial was considered active when a reduction of ≥1 log10 relative to the initial inoculum was observed.
# E. coli = assay: Effect on bacterial growth curves; type: cell-based; conditions: irrespective of concentration (MIC, ½ MIC and ¼ MIC)
# Experimental: (§3) The study of the growth dynamic of the S. aureus, E. coli and P.aeruginosa strains against CAMPDs were assayed with a starting inoculum of 10^6–10^8 CFU/mL in a 10 mL specific falcon tube. The experiment was performed by a real-time reverse-spin bioreactor RTS-1 (Biosan SIA, Riga, Latvia) that applies non-invasive, mechanically driven rotation; thus, the cell suspension is mixed efficiently, mixing and oxygening the culture at 37 °C. Cell growth kinetics were recorded non-invasively in real time from data obtained from a near-infrared optical system, every 15 min.
# P. aeruginosa [3] = assay: Effect on bacterial growth curves; type: cell-based
# Experimental: as §3
# S. aureus = assay: Effect on bacterial growth curves; type: cell-based; conditions: at MIC, ½ MIC and ¼ MIC
# Experimental: as §3
# in vitro = conditions: human
# Experimental: (§4) Cell viability was evaluated using the colorimetric MTT assay [21]. Human hepatocarcinoma (HepG2) cells and human embryonic kidney 293 (HEK-293) cells used in the drug toxicity assays were obtained from Cellonex (Johannesburg, South Africa). Viable HepG2 and HEK293 cells (20,000 cells/well) were seeded into a 96-well microtiter plate (200 µL) and allowed to attach overnight. The cells were exposed to varying concentrations of the peptides for 24 h. After removal of the treatment medium, 20 µL of MTT salt solution (5 mg/mL in 0.1M phosphate buffer saline (PBS)) and 100 µL of complete cell culture medium (CCM) were added to each well. After a 4 h (37 °C) incubation, the MTT salt solution was discarded and 100 μL of dimethyl sulphoxide (DMSO) were added to each well (1 h, 37 °C). The optical density of the solubilized formazan product was measured at 570 nm (reference λ of 690 nm) using a Bio-tek μQuant spectrophotometer (Winooski, VT, USA). […] GraphPad Prism (V5) (La Jolla, CA, USA) was used to obtain the half maximum inhibitory concentration (IC50) for each compound.
# MTT cytotoxicity assay = type: cell-based, human; conditions: human, HepG2 cells, HepG2, 24 h exposure
# Experimental: as §4
# HepG2 cells = assay: MTT cytotoxicity assay; type: cell-based, human; conditions: HepG2, range of concentrations tested
# Experimental: as §4
# CRE, E. coli isolates = assay: microbe, parasite or virus in culture; type: cell-based; conditions: Escherichia coli
# Experimental: as §1, §2
# Experimental for HEK293 cells: as §4
Structure (SMILES),MBC (S. aureus ATCC 29213; ATCC 29213) [µg/mL],MIC (S. aureus ATCC 29213; ATCC 29213) [µg/mL],MBC (B. subtilis ATCC 6051; ATCC 6051) [µg/mL],MIC (B. subtilis ATCC 6051; ATCC 6051) [µg/mL],MBC (E. faecium ATCC 35667; ATCC 35667) [µg/mL],MIC (E. faecium ATCC 35667; ATCC 35667) [µg/mL],MBC (E. coli ATCC 25822; ATCC 25822) [µg/mL],MIC (E. coli ATCC 25822; ATCC 25822) [µg/mL],MBC (P. aeruginosa ATCC 27853; ATCC 27853) [µg/mL],MIC (P. aeruginosa ATCC 27853; ATCC 27853) [µg/mL],MIC [1] [µg/mL],effect on growth curve (E. coli),effect on growth curve (P. aeruginosa [3]; at ½ MIC or ¼ MIC),effect on growth curve (S. aureus),IC50 at 24 h (in vitro) [µg/mL],IC50 at 24 h (MTT cytotoxicity assay) [µg/mL],time–kill: effect on bacterial population (P. aeruginosa [2]; at MIC),time–kill: effect on bacterial population (P. aeruginosa [2]; at ¼ MIC),time–kill: effect on bacterial population (P. aeruginosa [2]; at ½ MIC),also measured
"CC(C)C[C@H](NC(=O)[C@H](CC(C)C)NC(=O)[C@H](CCCN)NC(=O)[C@H](CC(C)C)NC(=O)[C@H](CC(C)C)NC(=O)[C@H](CCCCNC(=O)[C@H](CCCN)NC(=O)[C@H](CC(C)C)NC(=O)[C@@H](N)CCCN)NC(=O)[C@H](CCCN)NC(=O)[C@H](CC(C)C)NC(=O)[C@@H](N)CCCN)C(N)=O [G1OLO-L2OL2, (OLO)2KLLOLL-NH2] (H-[Orn]L[Orn]K([Orn-Leu-Orn])LL[Orn]LL-NH2)",64,64,32,32,16,16,8,8,16,16,64,abolished bacterial growth,no effect,negligible,470,–,–,–,–,"time–kill: effect on bacterial population (P. aeruginosa [2]; any concentration tested (MIC, ½ MIC, ¼ MIC)): had no effect at any concentration tested; delay in growth (P. aeruginosa [3]; at the MIC): approximately 6 h; toxicity (MTT) (HEK293 cells): did not show toxicity"
"CC(C)C[C@H](NC(=O)[C@H](CC(C)C)NC(=O)[C@H](CCCN)NC(=O)[C@H](CC(C)C)NC(=O)[C@H](CC(C)C)NC(=O)[C@H](CCCCNC(=O)[C@H](CCCN)NC(=O)[C@H](CC(C)C)NC(=O)[C@H](CCCN)NC(=O)[C@H](CCCCNC(=O)[C@H](CCCN)NC(=O)[C@H](CC(C)C)NC(=O)[C@@H](N)CCCN)NC(=O)[C@H](CCCN)NC(=O)[C@H](CC(C)C)NC(=O)[C@@H](N)CCCN)NC(=O)[C@H](CCCN)NC(=O)[C@H](CC(C)C)NC(=O)[C@H](CCCN)NC(=O)[C@H](CCCCNC(=O)[C@H](CCCN)NC(=O)[C@H](CC(C)C)NC(=O)[C@@H](N)CCCN)NC(=O)[C@H](CCCN)NC(=O)[C@H](CC(C)C)NC(=O)[C@@H](N)CCCN)C(N)=O [G2OLO-L2OL2, (OLO)4(KOLO)2KLLOLL-NH2] (I: H-[Orn]L[Orn]K([Orn-Leu-Orn])[Orn]L[Orn]KLL[Orn]LL-NH2 / II: H-[Orn]L[Orn]K([Orn-Leu-Orn])[Orn]L[Orn]; amide I:8-II:C)",32,32,32,32,8,8,32,32,32,32,64,abolished bacterial growth,–,negligible,199,141,killed all bacteria within the first hour of exposure and regrowth was observed after the second hour,the bacterial population was not totally eliminated,the bacterial population was not totally eliminated,effect on growth curve (P. aeruginosa [3]; at the MIC): abolished growth; delay in growth (P. aeruginosa [3]; at ¼ MIC): ~2 h; delay in growth (P. aeruginosa [3]; at ½ MIC): 10 h
"CC(C)C[C@H](NC(=O)[C@H](CC(C)C)NC(=O)[C@H](CCCNC(=N)N)NC(=O)[C@H](CC(C)C)NC(=O)[C@H](CC(C)C)NC(=O)[C@H](CCCCNC(=O)[C@H](CCCNC(=N)N)NC(=O)[C@H](CC(C)C)NC(=O)[C@H](CCCNC(=N)N)NC(=O)[C@H](CCCCNC(=O)[C@H](CCCNC(=N)N)NC(=O)[C@H](CC(C)C)NC(=O)[C@@H](N)CCCNC(=N)N)NC(=O)[C@H](CCCNC(=N)N)NC(=O)[C@H](CC(C)C)NC(=O)[C@@H](N)CCCNC(=N)N)NC(=O)[C@H](CCCNC(=N)N)NC(=O)[C@H](CC(C)C)NC(=O)[C@H](CCCNC(=N)N)NC(=O)[C@H](CCCCNC(=O)[C@H](CCCNC(=N)N)NC(=O)[C@H](CC(C)C)NC(=O)[C@@H](N)CCCNC(=N)N)NC(=O)[C@H](CCCNC(=N)N)NC(=O)[C@H](CC(C)C)NC(=O)[C@@H](N)CCCNC(=N)N)C(N)=O [G2RLR-L2RL2, (RLR)4(KRLR)2KLLRLL-NH2] (I: H-RLRK([Arg-Leu-Arg])RLRKLLRLL-NH2 / II: H-RLRK([Arg-Leu-Arg])RLR; amide I:8-II:C)",32,32,16,16,16,16,64,64,64,64,–,–,–,–,67.4,102,reduced the bacterial population to almost zero and no regrowth was appreciated after 24 h,the bacterial population remained partially inhibited at the beginning of the exposure,reduced the bacterial population to almost zero and no regrowth was appreciated after 24 h,–
"CC(C)C[C@H](NC(=O)[C@H](CC(C)C)NC(=O)[C@H](CCCCN)NC(=O)[C@H](CC(C)C)NC(=O)[C@H](CC(C)C)NC(=O)[C@H](CCCCNC(=O)[C@H](CCCCN)NC(=O)[C@H](CC(C)C)NC(=O)[C@@H](N)CCCCN)NC(=O)[C@H](CCCCN)NC(=O)[C@H](CC(C)C)NC(=O)[C@@H](N)CCCCN)C(N)=O [G1KLK-L2KL2, (KLK)2KLLKLL-NH2] (H-KLKK([Lys-Leu-Lys])LLKLL-NH2)",128,128,64,64,–,>128,32,32,32,32,–,–,–,–,–,–,–,–,–,toxicity (MTT) (HepG2 cells): did not show toxicity at the range of concentrations tested
"CC(C)C[C@H](NC(=O)[C@H](CC(C)C)NC(=O)[C@H](CCCCN)NC(=O)[C@H](CC(C)C)NC(=O)[C@H](CC(C)C)NC(=O)[C@H](CCCCNC(=O)[C@H](CCCCN)NC(=O)[C@H](CC(C)C)NC(=O)[C@H](CCCCN)NC(=O)[C@H](CCCCNC(=O)[C@H](CCCCN)NC(=O)[C@H](CC(C)C)NC(=O)[C@@H](N)CCCCN)NC(=O)[C@H](CCCCN)NC(=O)[C@H](CC(C)C)NC(=O)[C@@H](N)CCCCN)NC(=O)[C@H](CCCCN)NC(=O)[C@H](CC(C)C)NC(=O)[C@H](CCCCN)NC(=O)[C@H](CCCCNC(=O)[C@H](CCCCN)NC(=O)[C@H](CC(C)C)NC(=O)[C@@H](N)CCCCN)NC(=O)[C@H](CCCCN)NC(=O)[C@H](CC(C)C)NC(=O)[C@@H](N)CCCCN)C(N)=O [G2KLK-L2KL2, (KLK)4(KKLK)2KLLKLL-NH2] (I: H-KLKK([Lys-Leu-Lys])KLKKLLKLL-NH2 / II: H-KLKK([Lys-Leu-Lys])KLK; amide I:8-II:C)",32,32,8,8,32,32,32,16,16,8 to 16,64,–,less capacity to delay growth,–,116,124,–,–,–,–
"C[C@@H](O)[C@H]1C(=O)N2C(C(=O)O)=C(S[C@@H]3CN[C@H](C(=O)N(C)C)C3)[C@H](C)[C@H]12 [Meropenem, reference compound]",–,–,–,–,–,–,–,–,–,–,–,–,–,–,–,–,–,–,–,"MIC (S. aureus ATCC 29213; Staphylococcus aureus, ATCC29213, S. aureus ATCC 29213, read-out: MIC): 0.25 µg/mL; MIC (B. subtilis ATCC 6051; Bacillus subtilis, ATCC6051, B. subtilis ATCC 6051, read-out: MIC): 0.062 µg/mL; MIC (E. faecium ATCC 35667; Enterococcus faecium, ATCC35667, E. faecium ATCC 35667, read-out: MIC): < 0.25 µg/mL; MIC (E. coli ATCC 25822; Escherichia coli, ATCC25822): 0.125 µg/mL; MIC (P. aeruginosa ATCC 27853; Pseudomonas aeruginosa, ATCC27853, P. aeruginosa ATCC 27853, read-out: MIC): 1 µg/mL; MIC (CRE, E. coli isolates; CRE E. coli isolate IMP JAP): 8 µg/mL; MIC (CRE, E. coli isolates; CRE E. coli isolate KPC L2l): 16 µg/mL; MIC (CRE, E. coli isolates; CRE E. coli isolate NDM4-FEK): > 32 µg/mL; MIC (CRE, E. coli isolates; CRE E. coli isolate OXA-48 501): 2 µg/mL; MIC (CRE, E. coli isolates; CRE E. coli isolate VIM-1 BM-12): > 32 µg/mL"

# — article PMC8228121, “Super-Cationic Peptide Dendrimers—Synthesis and Evaluation as Antimicrobial Agents” (Antibiotics, 2021)
